The values below are quoted from earlier work in US20030180704A1, “Ice-controlling molecules and uses thereof” (priority 2002, published 2003).

In the first series the test system is Crithidia fasciculata. The settings on record: cryopreservation at -20 C, different media.
For the compound `OC1CCCC(O)C1` (stereo not shown) [1,3-cyclohexanediol], the “toxicity to Crithidia fasciculata” value is listed as “toxic”.

The series is the same for the next values; noted with them: stored at -20 C, different media.
Consider `OC1CCC(O)CC1` (stereo not shown) [1,4-cyclohexanediol], for which the “ability to cryopreserve Crithidia fasciculata without toxicity” value is given as “potential outstanding cryoprotectants”.

As for `C[S+](C)[O-]` [dimethylsulfoxide], the “ability to cryopreserve Crithidia fasciculata without toxicity” value is “potential outstanding cryoprotectants”.

As to `OCC(O)CO` [glycerol], the “ability to cryopreserve Crithidia fasciculata without toxicity” value is reported as “best cryoprotectant”.

For the compound `CC(O)CO` (stereo not shown) [propylene glycol], the “ability to cryopreserve Crithidia fasciculata without toxicity” value is “potential outstanding cryoprotectants”.

Regarding `CC(=O)NCCO` [N-acetylethanolamine], the “ability to cryopreserve Crithidia fasciculata without toxicity” value is given as “potential outstanding cryoprotectants”.

As for `OCCC(O)CO` (stereo not shown) [1,2,4-butantriol], the “ability to cryopreserve Crithidia fasciculata without toxicity” value is “potential outstanding cryoprotectants”.
